The target of one experiment is T1, KRAS G12D/SOS1 (Homo sapiens, UniProt Q07889).
T1 sequence (Q07889 1-1333): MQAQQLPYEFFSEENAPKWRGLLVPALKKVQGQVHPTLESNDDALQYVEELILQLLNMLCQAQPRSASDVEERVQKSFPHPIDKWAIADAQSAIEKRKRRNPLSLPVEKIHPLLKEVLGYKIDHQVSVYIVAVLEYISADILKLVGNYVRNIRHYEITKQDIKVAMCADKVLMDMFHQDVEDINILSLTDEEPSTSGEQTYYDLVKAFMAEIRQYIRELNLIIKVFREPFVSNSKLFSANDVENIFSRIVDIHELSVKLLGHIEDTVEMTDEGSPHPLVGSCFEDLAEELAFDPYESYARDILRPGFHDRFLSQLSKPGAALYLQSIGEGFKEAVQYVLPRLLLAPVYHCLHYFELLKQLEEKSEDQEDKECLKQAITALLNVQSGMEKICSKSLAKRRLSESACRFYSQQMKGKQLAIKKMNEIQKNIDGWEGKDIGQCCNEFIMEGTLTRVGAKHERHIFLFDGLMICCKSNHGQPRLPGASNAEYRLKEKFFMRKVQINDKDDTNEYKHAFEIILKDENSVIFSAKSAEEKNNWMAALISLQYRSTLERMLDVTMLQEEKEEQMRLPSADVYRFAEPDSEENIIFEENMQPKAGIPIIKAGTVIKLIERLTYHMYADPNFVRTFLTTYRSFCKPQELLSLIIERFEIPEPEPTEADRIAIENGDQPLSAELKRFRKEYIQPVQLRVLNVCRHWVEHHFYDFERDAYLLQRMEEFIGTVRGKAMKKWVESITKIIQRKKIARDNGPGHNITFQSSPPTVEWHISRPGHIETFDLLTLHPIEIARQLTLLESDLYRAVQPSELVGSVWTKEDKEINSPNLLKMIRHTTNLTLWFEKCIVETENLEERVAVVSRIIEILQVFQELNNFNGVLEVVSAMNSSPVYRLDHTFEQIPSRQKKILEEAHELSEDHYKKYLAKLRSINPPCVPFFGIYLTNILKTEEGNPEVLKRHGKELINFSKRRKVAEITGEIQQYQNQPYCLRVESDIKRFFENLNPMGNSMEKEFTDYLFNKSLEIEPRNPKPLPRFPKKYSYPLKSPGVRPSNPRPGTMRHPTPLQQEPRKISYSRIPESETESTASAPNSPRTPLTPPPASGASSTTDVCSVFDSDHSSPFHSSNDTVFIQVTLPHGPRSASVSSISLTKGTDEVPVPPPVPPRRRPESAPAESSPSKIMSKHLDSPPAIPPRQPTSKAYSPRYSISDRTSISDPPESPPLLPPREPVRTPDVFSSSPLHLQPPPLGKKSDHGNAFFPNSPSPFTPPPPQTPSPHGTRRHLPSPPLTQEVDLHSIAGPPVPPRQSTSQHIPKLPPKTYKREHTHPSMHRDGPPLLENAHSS
The experiment can be described thus: KRAS G12D/SOS1 binding assay (HTRF). The settings on record: Tag2-KRAS G12D with Tag1-SOS1, 10 μM GTP. (Time-resolved FRET reads energy transfer from a long-lived donor to a nearby acceptor.)

The next experiment deals with T2, KRAS-WT/SOS1 (Homo sapiens, UniProt Q07889).
T2 sequence (Q07889 1-1333): T1 sequence (Q07889 1-1333)
The experiment can be described thus: KRAS-WT/SOS1 binding assay (HTRF). The settings on record: Tag2-KRAS-WT with Tag1-SOS1, 10 μM GTP.

For `COc1c(OC2CC(F)(F)C2)cc(C(=O)N[C@H](C)c2cccc3c2CCC3(F)F)c2n[nH]cc12` [Example 31, (R)-N-(1-(1,1-difluoro-2,3-dihydro-1H-inden-4-yl)ethyl)-5-(3,3-difluorocyclobutoxy)-4-methoxy-2H-indazole-7-carboxamide], the “Activity Data in Kras: SOS1 Assay, G12D” value on KRAS G12D/SOS1 was “C (C: 500~5 μM)”. On KRAS-WT/SOS1, the “Activity Data in Kras: SOS1 Assay, Wild Type” value is “C (C: 500~5 μM)”.

Regarding `COc1c(N2CCOCC2)nc(C(=O)N[C@H](C)c2cccc3c2CCC3(F)F)c2n[nH]cc12` [Example 44, (R)—N-(1-(1,1-difluoro-2,3-dihydro-1H-inden-4-yl)ethyl)-4-methoxy-5-morpholino-2H-pyrazolo[3,4-c]pyridine-7-carboxamide], the “Activity Data in Kras: SOS1 Assay, G12D” value on KRAS G12D/SOS1 was “C (C: 500~5 μM)”. In addition, at KRAS-WT/SOS1, the “Activity Data in Kras: SOS1 Assay, Wild Type” value is “C (C: 500~5 μM)”.

Values taken from patent publication US20240109887A1 (Viva Star Biosciences (Suzhou) Co., Ltd., priority 2021, published 2024).
